Measured values: article PMC3121697, “Predicting Binding to P-Glycoprotein by Flexible Receptor Docking” (PLoS Computational Biology, 2011)
Where two headings read alike, the source gives them in different places.

Columns and labels:
P-gp [1] = details: cited from earlier work
P-gp [2] = details: metabolites with favorable scores reassigned to the binders set; cited from earlier work
in vitro = details: dog, MDCK-MDR1, pH 7.4
Procedure: (§1) Permeability measurements were performed by Wuxi Apptec, using the following procedures.
(§2) Test compounds were diluted with the transport buffer (HBSS, pH 7.4) from a 10 mM stock solution to a concentration of 2 µM and applied to the apical (A) or basolateral (B) side of the cell monolayer. […] In addition, the efflux ratio of each compound was also determined. Test and reference compounds were quantified by LC-MS/MS analysis based on the peak area ratio of analyte/IS.
(§3) The apparent permeability coefficient Papp (cm/s) was calculated using the equation: [drawing 1] where dCr/dt is the cumulative concentration of compound in the receiver chamber as a function of time (µM/s); Vr is the solution volume in the receiver chamber (0.075 mL on the apical side, 0.25 mL on the basolateral side); A is the surface area for the transport, i.e. 0.084 cm^2 for the area of the monolayer; C0 is the initial concentration in the donor chamber (µM).
(§4) The efflux ratio (ER) was calculated using the equation: [drawing 2]
(§5) Percent recovery was calculated using the equation: [drawing 3] Where Vd is the volume in the donor chambers (0.075 mL on the apical side, 0.25 mL on the basolateral side); Cd and Cr are the final concentrations of transport compound in donor and receiver chambers, respectively. Cc is the compound concentration in the cell lysate solution (µM), and Vc is the volume of insert well (0.075 mL in this assay).
(§6) Permeability determinations were performed in triplicate and are reported as mean values.

MDCK-MDR1 cells = assay: MDCK-MDR1 monolayer permeability assay; details: 2 µM, 150 min
Procedure: as §1, §2, §3, §4, §5, §6

P-gp [3] = test system: P-gp; parameters: method as in Aller paper [29]; details: reported value; ref Aller paper [29]; read-out: IC50 for inhibition of verapamil-stimulated ATPase activity; cited from earlier work
[4] = Table S4, Doan et al. dataset, both assays positive or both negative

Compound | P-gp interaction (P-gp [1]; [4]) | P-gp interaction (P-gp [1]; not told) | further results
OC(CCN1CCCCC1)(c1ccccc1)C1CC2C=CC1C2 [(R)-Biperiden] | N |  | 
CN(C)CC[C@H](c1ccc(Cl)cc1)c1ccccn1 [(R)-Chlorpheniramine] |  | N | 
CN(C)CCO[C@](C)(c1ccccc1)c1ccccn1 [(R)-Doxylamine] |  | N | 
CN[C@@]1(c2ccccc2Cl)CCCCC1=O [(R)-Ketamine] |  | N | 
COc1ccc2c(c1)N(C[C@H](C)CN(C)C)c1ccccc1S2 [(R)-Levomeprazine] | Y |  | 
c1ccc2c(c1)Sc1ccccc1N2C[C@H]1CN2CCC1CC2 [(R)-Mequitazine] | Y |  | 
COCCc1ccc(OC[C@H](O)CNC(C)C)cc1 [(R)-Metoprolol] | N |  | 
C=CCOc1ccccc1OC[C@H](O)CNC(C)C [(R)-Oxprenolol] | N |  | 
CN(C)CC[C@H](c1ccccc1)c1ccccn1 [(R)-Pheniramine] |  | N | 
CC(=O)C[C@H](c1ccccc1)c1c(O)c2ccccc2oc1=O [(R)-Warfarin] |  | N | 
CC(C)(C)c1ccc([C@H](O)CCCN2CCC(C(O)(c3ccccc3)c3ccccc3)CC2)cc1 [(R)-terfenadine] |  | Y | 
OC(CCN1CCCCC1)(c1ccccc1)C1CC2C=CC1C2 [(S)-Biperiden] | N |  | 
CN(C)CC[C@@H](c1ccc(Cl)cc1)c1ccccn1 [(S)-Chlorpheniramine] |  | N | 
CN(C)CCO[C@@](C)(c1ccccc1)c1ccccn1 [(S)-Doxylamine] |  | N | 
CN[C@]1(c2ccccc2Cl)CCCCC1=O [(S)-Ketamine] |  | N | 
c1ccc2c(c1)Sc1ccccc1N2CC1CN2CCC1CC2 [(S)-Mequitazine] | Y |  | 
COCCc1ccc(OC[C@@H](O)CNC(C)C)cc1 [(S)-Metoprolol] | N |  | 
C=CCOc1ccccc1OC[C@@H](O)CNC(C)C [(S)-Oxprenolol] | N |  | 
CN(C)CC[C@@H](c1ccccc1)c1ccccn1 [(S)-Pheniramine] |  | N | 
CC(=O)C[C@@H](c1ccccc1)c1c(O)c2ccccc2oc1=O [(S)-Warfarin] |  | N | 
CC(C)(C)c1ccc([C@@H](O)CCCN2CCC(C(O)(c3ccccc3)c3ccccc3)CC2)cc1 [(S)-terfenadine] |  | Y | 
NC12CC3CC(CC(C3)C1)C2 [Amantadine] | N |  | 
Cc1cc(=O)n(-c2ccccc2)n1C [Antipyrine] |  | N | 
COc1ccc(CCN2CCC(Nc3nc4ccccc4n3Cc3ccc(F)cc3)CC2)cc1 [Astemizole] |  | Y | 
NC(=O)N1c2ccccc2C=Cc2ccccc21 [Carbamazepine] | N |  | 
CC(C)CCC[C@@H](C)[C@H]1CC[C@H]2[C@@H]3CC=C4C[C@@H](O)CC[C@]4(C)[C@H]3CC[C@]12C [Cholesterol**, Cholesterol] |  |  | Reported interaction with P-gp (P-gp [2]): interact with P-gp

Compound | P-gp interaction (P-gp [1]; [4]) | P-gp interaction (P-gp [1]; not told) | further results
Clc1cccc(Cl)c1N=C1NCCN1 [Clonidine] | N |  | 
N#CCNC(=O)[C@H](Cc1c[nH]cn1)NC(=O)OCc1ccccc1 [Compound 9] |  |  | Papp B→A at 150 min, 2 µM (in vitro): 2.9 ×10⁻⁶ cm/s; Papp at 150 min, 2 µM (in vitro): 0.5 ×10⁻⁶ cm/s; Mean Efflux Ratio (MDCK-MDR1 cells): 5.8; Mean Papp A to B (MDCK-MDR1 cells; 37°C, pH 7.4, triplicate mean): 0.51 10^−6 cm/s
N=C(N)N/N=C/c1c(Cl)cccc1Cl [Guanabenz] | N |  | 
N=C(N)NC(=O)Cc1c(Cl)cccc1Cl [Guanfacine] | N |  | 
CN(C)CCCN1c2ccccc2CCc2ccccc21 [Imipramine] | N |  | 
COc1ccc2c(c1)c(CC(=O)O)c(C)n2C(=O)c1ccc(Cl)cc1 [Indomethacin] | N |  | 
CN(C)C(=O)C(CCN1CCC(O)(c2ccc(Cl)cc2)CC1)(c1ccccc1)c1ccccc1 [Loperamide] |  | Y | 
OC[C@@H](O)[C@@H](O)[C@H](O)[C@H](O)CO [Mannitol] | N |  | 
CNC(C)(C)Cc1ccccc1 [Mephentermine] | N |  | 
CCCC(C)(COC(N)=O)COC(N)=O [Meprobamate] |  | N | 
C=CCN1CC[C@]23c4c5ccc(O)c4O[C@H]2C(=O)CC[C@@]3(O)[C@H]1C5 [Naloxone] | N |  | 
Cc1c(O)cccc1C(=O)N[C@@H](CSc1ccccc1)[C@H](O)CN1C[C@H]2CCCC[C@H]2C[C@H]1C(=O)NC(C)(C)C [Nelfinavir] | Y |  | 
O=C1CN=C(c2ccccc2)c2cc([N+](=O)[O-])ccc2N1 [Nitrazepam] |  | N | 
CC(=O)[C@H]1CC[C@H]2[C@@H]3CCC4=CC(=O)CC[C@]4(C)[C@H]3CC[C@]12C [Progesterone**, Progesterone] |  |  | Reported interaction with P-gp (P-gp [2]): interact with P-gp
CNCCCC1c2ccccc2C=Cc2ccccc21 [Protriptylene] | Y |  | 
CC(C)(C)NC(=O)[C@@H]1C[C@@H]2CCCC[C@@H]2CN1C[C@@H](O)[C@H](Cc1ccccc1)NC(=O)[C@H](CC(N)=O)NC(=O)c1ccc2ccccc2n1 [Saquinavir] | Y |  | 
O=C(O)c1cc(/N=N/c2ccc(S(=O)(=O)Nc3ccccn3)cc2)ccc1O [Sulfasalazine] |  |  | P-gp interaction (P-gp [1]; Table S5, Doan et al. dataset, both assays positive or both negative): N
O=C(O)c1cc(/N=N/c2ccc(S(=O)(=O)Nc3ccccn3)cc2)ccc1O [Sulfasalazine_a*, Sulfasalazine] | N |  | 
O=C(O)c1cc(/N=N/c2ccc(S(=O)(=O)Nc3ccccn3)cc2)ccc1O [Sulfasalazine_b*, Sulfasalazine] | N |  | 
CNS(=O)(=O)Cc1ccc2[nH]cc(CCN(C)C)c2c1 [Sumatriptan] | N |  | 
Nc1c2c(nc3ccccc13)CCCC2 [Tacrine] |  | N | 
NC(Cc1cc(I)c(Oc2cc(I)c(O)c(I)c2)c(I)c1)C(=O)O (stereo not shown) [Thyroxine**, Thyroxine] |  |  | Reported interaction with P-gp (P-gp [2]): interact with P-gp
C=C1CC[C@H](O)C/C1=C/C=C1\CCC[C@]2(C)[C@@H]([C@H](C)CCCC(C)C)CC[C@@H]12 [Vitamin D3**, Vitamin D3] |  |  | Reported interaction with P-gp (P-gp [2]): interact with P-gp
CN(C)C/C=C(/c1ccc(Br)cc1)c1cccnc1 [Zimeldine] | N |  | 
(S)-Levomeprazine | Y |  | 
QZ59-RRR |  |  | IC50 (P-gp [3]): 4.8 ± 2.6 µM
